Literature values, collected in patent US20230381275A1, “MUSCULAR FUNCTION IMPROVING AGENT FOR SKELETAL MUSCLE OF WHICH FUNCTION IS DEGRADED DUE TO AGING” (OSAKA UNIVERSITY, priority 2020, published 2023).

tested on: not given; conditions: relative to SVVYGLR (SEQ ID NO.: 1); earlier work of the inventors; cited from earlier work

| Substance | angiogenic effect |
| --- | --- |
| SVVFGLR [SEQ ID No.: 2] | maintained |
| SVVWGLR [SEQ ID No.: 3] | maintained |
| SVVYGL [SEQ ID NO.: 4] | maintained |
| SVVYGLRG [SEQ ID NO.: 10] | maintained |
| VVYGLR [SEQ ID NO.: 5] | maintained |

tested on: fibroblasts; conditions: see Patent Document 1; cited from earlier work

| Substance | type III collagen production-promoting effect / type III collagen secretion |
| --- | --- |
| fragment of osteopontin having SVVYGLR (SEQ ID No.: 1) at the C-terminus: thrombin-cleaved fragment of human osteopontin, or a portion thereof, having the sequence SVVYGLR at the C-terminus | effect equivalent to type III collagen production-promoting effect of SVVYGLR |
